Reference: patent US8293769B2, “CSF-1R inhibitors, compositions, and methods of use” (Novartis AG, priority 2008, dated 2012)

Experiments:
[1] = biological target: T1, cytoplasmic domain of the human CSF-1R (Homo sapiens, UniProt P07333); assay: In vitro kinase assay for CSF-1R (AlphaScreen); type: biochemical; details: tested at about 1 μM; read-out: CSF1RK 1 percent inhibition
T1 construct: Recombinant protein corresponding to the cytoplasmic domain of the human CSF-1R; purchased Invitrogen Corporation, Carlsbad, Calif; PV3249
T1 sequence (P07333 539-972 limits assumed): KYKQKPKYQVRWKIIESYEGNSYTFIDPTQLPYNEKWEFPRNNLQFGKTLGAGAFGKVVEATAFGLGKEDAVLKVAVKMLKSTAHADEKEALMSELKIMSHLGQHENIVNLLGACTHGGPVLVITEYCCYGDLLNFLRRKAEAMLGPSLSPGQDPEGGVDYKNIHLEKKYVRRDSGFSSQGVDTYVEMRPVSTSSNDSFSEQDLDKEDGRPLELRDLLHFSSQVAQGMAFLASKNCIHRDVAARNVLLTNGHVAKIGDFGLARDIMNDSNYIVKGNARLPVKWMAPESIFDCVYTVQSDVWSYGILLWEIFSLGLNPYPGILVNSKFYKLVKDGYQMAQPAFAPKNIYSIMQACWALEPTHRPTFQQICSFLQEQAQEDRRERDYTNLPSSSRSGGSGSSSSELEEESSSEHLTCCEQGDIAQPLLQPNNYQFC
Procedure: The kinase activity of various protein tyrosine kinases can be measured by providing ATP and a suitable peptide or protein tyrosine-containing substrate, and assaying the transfer of phosphate moiety to the tyrosine residue. Recombinant protein corresponding to the cytoplasmic domain of the human CSF-1R was purchased from Invitrogen Corporation, Carlsbad, Calif. U.S.A. (#PV3249). For each assay, test compounds were serially diluted, starting at 25 μM with 3 fold dilutions, in DMSO in 384 well plates then mixed with an appropriate kinase reaction buffer consisting of 50 mM Hepes, 5 mM MgCl2, 10 mM MnCl2, 0.1% BSA, pH 7.5, 1.0 mM dithiothreitol, 0.01% Tween 80 plus 1 μM ATP. Kinase protein and an appropriate biotinylated peptide substrate at 50 nM were added to give a final volume of 20 μL, reactions were incubated for 2 hours at room temperature and stopped by the addition of 10 μL of 45 mM EDTA, 50 mM Hepes pH 7.5. Added to the stopped reaction mix was 30 μL of PT66 Alphascreen beads (Perkin Elmer, Boston, Mass., U.S.A.). The reaction was incubated overnight and read on the Envision (Perkin Elmer). Phosphorylated peptide product was measured with the AlphaScreen system (Perkin Elmer) using acceptor beads coated with anti-phosphotyrosine antibody PT66 and donor beads coated with streptavidin that emit a fluorescent signal at the 520-620 nm emission wave length if in close proximity. The concentration of each compound for 50% inhibition (IC50) was calculated by non-linear regression using XL Fit data analysis software.
CSF-1R kinase was assayed in 50 mM Hepes pH 7.0, 5 mM MgCl2, 10 mM MnCl2, 1 mM DTT, 1 mg/mL BSA, 1.0 μM ATP, and 0.05 μM biotin-GGGGRPRAATF-NH2 (SEQ ID NO:1) peptide substrate. CSF-1R kinase was added at final concentration of 4 nM.

cKIT = biological target: T2, cKIT (Homo sapiens, UniProt P10721); assay: cKIT kinase in vitro biochemical assay (alphascreen); details: tested at about 1 μM; read-out: CKIT percent inhibition
T2 construct: The kinase domain of cKIT was assayed in 50 mM Hepes; purchased Upstate 14-559
Procedure: (§1) The IC50 values for the inhibition of RTKs were determined in the alphascreen format measuring the inhibition by compound of phosphate transfer to a substrate by the respective enzyme. Briefly, the respective RTK domain purchased as human recombinant protein (cKIT Upstate #14-559, PDGFRb Invitrogen #P3082) were incubated with serial dilutions of compound in the presence of substrate and ATP concentrations within 3 times the Km of the enzyme.
(§2) The kinase domain of cKIT was assayed in 50 mM Hepes, pH=7.5, 5 mM MgCl2, 10 mM MnCl2, 1 mM DTT, 0.1% BSA with 0.06 uM biotinylated peptide substrate (GGLFDDPSYVNVQNL-NH2) and 15 uM ATP (ATP KM apparent=15 uM). The kinase domain of PDGFRβ was assayed in 50 mM Hepes, pH=7.5, 20 mM MgCl2, 1 mM DTT, 0.1% BSA with 0.1 uM biotinylated peptide substrate (GGLFDDPSYVNVQNL-NH2) and 10 uM ATP (ATP KM apparent=25 uM). Reactions were incubated at room temperature for 3 to 4 hr and stopped with buffer (20 mM EDTA, 0.01% Tween-20 for both PDGFRb and cKIT). Alphascreen PY20 beads were added to the stopped cKIT reactions and PY20 Ab/Protein A Alphascreen beads were added to the PDGFRβ stopped reactions. Both reactions were incubated overnight and read on the Alphascreen reader. The concentration of compound for 50% inhibition (IC50) was calculated employing non-linear regression using XL-Fit data analysis software. As a control compound, staurosporine is run in every assay and a Z′>0.5 is required to validate results.

PDGFRb = biological target: T3, PDGFRb (Homo sapiens, UniProt P09619); assay: PDGFRb kinase in vitro biochemical assay (alphascreen); details: tested at about 1 μM; read-out: PDGF RK BETA percent inhibition
T3 construct: The kinase domain of PDGFRβ was assayed in 50 mM Hepes; purchased Invitrogen P3082
Procedure: as §1, §2

T2 sequence (P10721 589-937 limits assumed): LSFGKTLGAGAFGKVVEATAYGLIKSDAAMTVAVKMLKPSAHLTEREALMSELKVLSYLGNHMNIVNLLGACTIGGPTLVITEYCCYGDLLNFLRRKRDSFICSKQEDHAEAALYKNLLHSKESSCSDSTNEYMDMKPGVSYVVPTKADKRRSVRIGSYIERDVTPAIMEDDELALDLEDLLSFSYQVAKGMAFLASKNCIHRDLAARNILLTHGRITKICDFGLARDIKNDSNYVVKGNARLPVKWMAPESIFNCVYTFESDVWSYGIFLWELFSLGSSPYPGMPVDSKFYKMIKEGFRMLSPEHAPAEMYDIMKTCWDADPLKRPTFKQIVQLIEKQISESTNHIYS
T3 sequence (P09619 600-962 limits assumed): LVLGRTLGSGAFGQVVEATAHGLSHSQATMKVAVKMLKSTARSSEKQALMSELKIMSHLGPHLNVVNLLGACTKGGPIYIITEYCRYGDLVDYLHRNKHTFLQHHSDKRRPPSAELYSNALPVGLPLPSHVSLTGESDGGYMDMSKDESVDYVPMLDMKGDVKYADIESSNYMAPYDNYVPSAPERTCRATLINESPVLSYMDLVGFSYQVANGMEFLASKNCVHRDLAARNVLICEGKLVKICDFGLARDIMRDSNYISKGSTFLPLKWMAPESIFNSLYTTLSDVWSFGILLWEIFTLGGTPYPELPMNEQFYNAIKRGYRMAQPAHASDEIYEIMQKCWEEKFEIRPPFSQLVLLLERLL

inhibition at 1 µM [1]	inhibition at 1 µM (cKIT)	inhibition at 1 µM (PDGFRb)	SMILES
73%	23%	0%	Clc1nccc(Oc2ccc3nc(NCC4CCCCC4)sc3c2)n1 [Compound 4, 6-(2-chloropyrimidin-4-yloxy)-N-(cyclohexylmethyl) benzo[d]thiazol-2-amine]
68%	19%	13%	c1nc(Oc2ccc3nc(NCC4CCCCC4)sc3c2)cc(N2CCOCC2)n1 [Compound 11, N-(cyclohexylmethyl)-6-(6-morpholinopyrimidin-4-yloxy)benzo[d]thiazol-2-amine]
100%	99%	83%	c1nc(Oc2ccc3nc(NCC4CCCCC4)sc3c2)c2sccc2n1 [Compound 38, N-(cyclohexylmethyl)-6-(thieno[3,2-d]pyrimidin-4-yloxy) benzo[d]thiazol-2-amine]
100%	97%	31%	O[C@@H]1CCCC[C@H]1Nc1nc2ccc(Oc3cncc(-c4cscn4)c3)cc2s1 [Compound 69, (1R,2R)-2-(6-(5-(thiazol-4-yl)pyridin-3-yloxy)benzo[d]thiazol-2-ylamino) cyclohexanol]
83%	27%	21%	O[C@@H]1CCCC[C@H]1Nc1nc2ccc(Oc3cnc(Cl)c(Br)c3)cc2s1 [Compound 99, (1R,2R)-2-(6-(5-bromo-6-chloropyridin-3-yloxy)benzo[d]thiazol-2-ylamino)cyclohexanol]
28%	33%	87%	Nc1ccc(Oc2ccc3nc(N[C@@H]4CCCC[C@H]4O)sc3c2)nn1 [Compound 90, (1R,2R)-2-(6-(6-aminopyridazin-3-yloxy)benzo[d]thiazol-2-ylamino)cyclohexanol]
100%	73%	8%	O[C@@H]1CCCC[C@H]1Nc1nc2ccc(Oc3cncc(C4CC4)c3)cc2s1 [Compound 65, (1R,2R)-2-(6-(5-cyclopropylpyridin-3-yloxy)benzo[d]thiazol-2-ylamino) cyclohexanol]
75%	46%	9%	Nc1ccc(Oc2ccc3nc(NCC4CCCCC4)sc3c2)nn1 [Compound 89, 6-(6-aminopyridazin-3-yloxy)-N-(cyclohexylmethyl)benzo[d]thiazol-2-amine]
78%	33%	12%	CNC(=O)c1cncc(Oc2ccc3nc(N[C@@H]4CCCC[C@H]4O)sc3c2)n1 [Compound 52, 6-(2-((1R,2R)-2-hydroxycyclohexylamino)benzo[d]thiazol-6-yloxy)-N-methylpyrazine-2-carboxamide]
68%	32%	17%	C[C@H](Nc1nc2ccc(Oc3cncc(-n4cncn4)n3)cc2s1)C1CCCCC1 [Compound 40, (S)-6-(6-(1H-1,2,4-triazol-1-yl)pyrazin-2-yloxy)-N-(1-cyclobexylethyl)benzo[d]thiazol-2-amine]
48%	11%	16%	O[C@@H]1CCCC[C@H]1Nc1nc2ccc(Oc3cnc(-c4cccnc4)c(-c4cccnc4)c3)cc2s1 [Compound 109, (1R,2R)-2-(6-(5,6-bis(pyridin-3-yl)pyridin-3-yloxy)benzo[d]thiazol-2-ylamino)cyclohexanol]
100%	86%	98%	O[C@@H]1CCCC[C@H]1Nc1nc2ccc(Oc3cncc(-c4ncco4)c3)cc2s1 [Compound 83, (1R,2R)-2-(6-(5-(oxazol-2-yl)pyridin-3-yloxy)benzo[d]thiazol-2-ylamino) cyclohexanol]
81%	13%	18%	Cn1cc(-c2cc(Oc3ccc4nc(N[C@@H]5CCCC[C@H]5O)sc4c3)cnc2-c2cnn(C)c2)cn1 [Compound 106, (1R,2R)-2-(6-(5,6-bis(1-methyl-1H-pyrazol-4-yl)pyridin-3-yloxy)benzo[d]thiazol-2-ylamino) cyclohexanol]
100%	82%	0%	O[C@@H]1CCCC[C@H]1Nc1nc2ccc(Oc3cncc(-c4cnn(CC(F)F)c4)c3)cc2s1 [Compound 82, (1R,2R)-2-(6-(5-(1-(2,2-difluoroethyl)-1H-pyrazol-4-yl)pyridin-3-yloxy)benzo[d]thiazol-2-ylamino)cyclohexanol]
32%	16%	0%	C[C@H](Nc1nc2ccc(Oc3ccc(C#N)nc3)cc2s1)C1CCCCC1 [Compound 87, (S)-5-(2-(1-cyclohexylethylamino)benzo[d]thiazol-6-yloxy)picolinonitrile]
95%	21%	14%	Cn1nccc1-c1cncc(Oc2ccc3nc(N[C@@H]4CCCC[C@H]4O)sc3c2)n1 [Compound 91, (1R,2R)-2-(6-(6-(1-methyl-1H-pyrazol-5-yl)pyrazin-2-yloxy)benzo[d]thiazol-2-ylamino) cyclohexanol]
93%	10%	23%	Nc1ccc(-c2cc(Oc3ccc4nc(N[C@@H]5CCCC[C@H]5O)sc4c3)cnc2-c2ccc(N)nc2)cn1 [Compound 108, (1R,2R)-2-(6-(5,6-bis(6-amino-pyridin-3-yl)pyridin-3-yloxy)benzo[d]thiazol-2-ylamino)cyclohexanol]
100%	86%	7%	CCCn1cc(-c2cncc(Oc3ccc4nc(N[C@@H]5CCCC[C@H]5O)sc4c3)c2)cn1 [Compound 58, (1R,2R)-2-(6-(5-(1-propyl-1H-pyrazol-4-yl)pyridin-3-yloxy)benzo[d]thiazol-2-ylamino)cyclohexanol]
94%	26%	16%	c1cc(Oc2ccc3nc(NCC4CCCCC4)sc3c2)nc(N2CCOCC2)n1 [Compound 15, N-(cyclohexylmethyl)-6-(2-morpholinopyrimidin-4-yloxy)benzo[d]thiazol-2-amine]
27%	33%	0%	C[C@H](Nc1nc2ccc(Oc3cc(-n4cncn4)ccn3)cc2s1)C1CCCCC1 [Compound 39, (S)-6-(4-(1H-1,2,4-triazol-1-yl)pyridin-2-yloxy)-N-(1-cyclohexylethyl) benzo[d]thiazol-2-amine]
